Measured values taken from ChEMBL document CHEMBL1697731, “Cheminformatics analysis of assertions mined from literature that describe drug-induced liver injury in different species” (Chem Res Toxicol, 2010).

Tests used:
[1] = tested on: Hepatotoxicity; experiment: Literature-mined compound from Fourches et al multi-species drug-induced liver injury (DILI) dataset, effect in humans; details: human
[2] = tested on: Hepatotoxicity; experiment: Literature-mined compound from Fourches et al multi-species drug-induced liver injury (DILI) dataset, effect in rodents; details: rodentia
[3] = tested on: Hepatotoxicity; experiment: Literature-mined compound from Fourches et al multi-species drug-induced liver injury (DILI) dataset, effect in non-rodents

Row | Structure (SMILES) | Hepatotoxicity [1] | Hepatotoxicity [2] | Hepatotoxicity [3] | Hepatotoxicity ([1]; Liver) | Hepatotoxicity ([2]; Liver) | Hepatotoxicity ([3]; Liver)
1 | CO[C@H](C(=O)[C@@H](O)[C@@H](C)O)[C@@H]1Cc2cc3cc(O[C@H]4C[C@@H](O[C@H]5C[C@@H](O)[C@H](O)[C@@H](C)O5)[C@H](O)[C@@H](C)O4)c(C)c(O)c3c(O)c2C(=O)[C@H]1O[C@H]1C[C@@H](O[C@H]2C[C@@H](O[C@H]3C[C@](C)(O)[C@H](O)[C@@H](C)O3)[C@@H](O)[C@@H](C)O2)[C@H](O)[C@@H](C)O1 [PLICAMYCIN] | drug-induced liver injury reported | drug-induced liver injury reported | no drug-induced liver injury reported | – | – | –
2 | COc1cc([C@@H]2c3cc4c(cc3[C@H](O)[C@H]3COC(=O)[C@H]23)OCO4)cc(OC)c1OC [PODOFILOX] | no drug-induced liver injury reported | drug-induced liver injury reported | no drug-induced liver injury reported | – | – | –
3 | C[C@]12CC[C@H](O)CC1=CC[C@@H]1[C@@H]2CC[C@]2(C)C(=O)CC[C@@H]12 [PRASTERONE] | drug-induced liver injury reported | drug-induced liver injury reported | no drug-induced liver injury reported | – | – | –
4 | CC[C@H](C)C(=O)O[C@H]1C[C@H](O)C=C2C=C[C@H](C)[C@H](CC[C@@H](O)C[C@@H](O)CC(=O)O)[C@H]21 [PRAVASTATIN] | drug-induced liver injury reported | drug-induced liver injury reported | drug-induced liver injury reported | – | – | –
5 | COc1cc2nc(N3CCN(C(=O)c4ccco4)CC3)nc(N)c2cc1OC [PRAZOSIN] | drug-induced liver injury reported | drug-induced liver injury reported | no drug-induced liver injury reported | – | – | –
6 | C[C@]12C=CC(=O)C=C1CC[C@@H]1[C@@H]2[C@@H](O)C[C@@]2(C)[C@H]1CC[C@]2(O)C(=O)CO [PREDNISOLONE] | drug-induced liver injury reported | drug-induced liver injury reported | no drug-induced liver injury reported | – | – | –
7 | C[C@]12C=CC(=O)C=C1CC[C@@H]1[C@@H]2C(=O)C[C@@]2(C)[C@H]1CC[C@]2(O)C(=O)CO [PREDNISONE] | drug-induced liver injury reported | no drug-induced liver injury reported | drug-induced liver injury reported | – | – | –
8 | COc1cc(NC(C)CCCN)c2ncccc2c1 (stereo unspecified) [PRIMAQUINE] | drug-induced liver injury reported | drug-induced liver injury reported | no drug-induced liver injury reported | – | – | –
9 | CCC1(c2ccccc2)C(=O)NCNC1=O [PRIMIDONE] | drug-induced liver injury reported | no drug-induced liver injury reported | drug-induced liver injury reported | – | – | –
10 | CCCN(CCC)S(=O)(=O)c1ccc(C(=O)O)cc1 [PROBENECID] | drug-induced liver injury reported | drug-induced liver injury reported | no drug-induced liver injury reported | – | – | –
11 | CC(C)(Sc1cc(C(C)(C)C)c(O)c(C(C)(C)C)c1)Sc1cc(C(C)(C)C)c(O)c(C(C)(C)C)c1 [PROBUCOL] | drug-induced liver injury reported | drug-induced liver injury reported | drug-induced liver injury reported | – | – | –
12 | CCN(CC)CCNC(=O)c1ccc(N)cc1 [PROCAINAMIDE] | drug-induced liver injury reported | drug-induced liver injury reported | no drug-induced liver injury reported | – | – | –
13 | CNNCc1ccc(C(=O)NC(C)C)cc1 [PROCARBAZINE] | no drug-induced liver injury reported | drug-induced liver injury reported | no drug-induced liver injury reported | – | – | –
14 | CN1CCN(CCCN2c3ccccc3Sc3ccc(Cl)cc32)CC1 [PROCHLORPERAZINE] | drug-induced liver injury reported | no drug-induced liver injury reported | no drug-induced liver injury reported | – | – | –
15 | [H]/N=C(\N/C(=N/[H])Nc1ccc(Cl)cc1)NC(C)C [PROGUANIL] | drug-induced liver injury reported | no drug-induced liver injury reported | no drug-induced liver injury reported | – | – | –
16 | CC(CN1c2ccccc2Sc2ccccc21)N(C)C (stereo unspecified) [PROMETHAZINE] | no drug-induced liver injury reported | drug-induced liver injury reported | drug-induced liver injury reported | – | – | –
17 | CC(C)c1cccc(C(C)C)c1O [PROPOFOL] | – | – | – | drug-induced liver injury reported | drug-induced liver injury reported | drug-induced liver injury reported
18 | CCC(=O)O[C@](Cc1ccccc1)(c1ccccc1)[C@H](C)CN(C)C [PROPOXYPHENE] | drug-induced liver injury reported | drug-induced liver injury reported | no drug-induced liver injury reported | – | – | –
19 | CC(C)NCC(O)COc1cccc2ccccc12 (stereo unspecified) [PROPRANOLOL] | drug-induced liver injury reported | drug-induced liver injury reported | drug-induced liver injury reported | – | – | –

Row | Structure (SMILES) | Hepatotoxicity [1] | Hepatotoxicity [2] | Hepatotoxicity [3] | Hepatotoxicity ([1]; Liver) | Hepatotoxicity ([2]; Liver) | Hepatotoxicity ([3]; Liver)
20 | CCCc1cc(=O)[nH]c(=S)[nH]1 [PROPYLTHIOURACIL] | – | – | – | drug-induced liver injury reported | drug-induced liver injury reported | no drug-induced liver injury reported
21 | CCCc1cc(C(N)=S)ccn1 [PROTIONAMIDE] | drug-induced liver injury reported | no drug-induced liver injury reported | no drug-induced liver injury reported | – | – | –
22 | NC(=O)c1cnccn1 [PYRAZINAMIDE] | drug-induced liver injury reported | drug-induced liver injury reported | no drug-induced liver injury reported | – | – | –
23 | CNC(=O)OCc1cccc(COC(=O)NC)n1 [PYRICARBATE] | drug-induced liver injury reported | drug-induced liver injury reported | no drug-induced liver injury reported | – | – | –
24 | Cc1ncc(COP(=O)(O)O)c(C=O)c1O [PYRIDOXAL PHOSPHATE ANHYDROUS] | no drug-induced liver injury reported | drug-induced liver injury reported | no drug-induced liver injury reported | – | – | –
25 | CCc1nc(N)nc(N)c1-c1ccc(Cl)cc1 [PYRIMETHAMINE] | drug-induced liver injury reported | drug-induced liver injury reported | no drug-induced liver injury reported | – | – | –
26 | CCN(CC)CCCC(C)Nc1c2ccc(Cl)cc2nc2ccc(OC)cc12 (stereo unspecified) [QUINACRINE] | drug-induced liver injury reported | drug-induced liver injury reported | drug-induced liver injury reported | – | – | –
27 | C#C[C@]1(O)CC[C@H]2[C@@H]3CCc4cc(OC5CCCC5)ccc4[C@H]3CC[C@@]21C [QUINESTROL] | no drug-induced liver injury reported | drug-induced liver injury reported | no drug-induced liver injury reported | – | – | –
28 | C=C[C@H]1C[N@@]2CC[C@H]1C[C@@H]2[C@@H](O)c1ccnc2ccc(OC)cc12 [QUINIDINE] | drug-induced liver injury reported | drug-induced liver injury reported | no drug-induced liver injury reported | – | – | –
29 | CCO[C@@H](Cc1ccc(OCCN2c3ccccc3Oc3ccccc32)cc1)C(=O)O [RAGAGLITAZAR] | no drug-induced liver injury reported | drug-induced liver injury reported | no drug-induced liver injury reported | – | – | –
30 | Cc1nc2ccc(CN(C)c3ccc(C(=O)N[C@@H](CCC(=O)O)C(=O)O)s3)cc2c(=O)[nH]1 [RALTITREXED] | drug-induced liver injury reported | no drug-induced liver injury reported | no drug-induced liver injury reported | – | – | –
31 | CNC(=C[N+](=O)[O-])NCCSCc1ccc(CN(C)C)o1 [RANITIDINE] | drug-induced liver injury reported | drug-induced liver injury reported | drug-induced liver injury reported | – | – | –
32 | O=C(NC(Cc1cc(=O)[nH]c2ccccc12)C(=O)O)c1ccc(Cl)cc1 (stereo unspecified) [REBAMIPIDE] | no drug-induced liver injury reported | drug-induced liver injury reported | no drug-induced liver injury reported | – | – | –
33 | Cc1oc(-c2ccccc2)nc1CCOc1ccc(CC2C(=O)NOC2=O)cc1 (stereo unspecified) [REGLITAZAR] | no drug-induced liver injury reported | drug-induced liver injury reported | no drug-induced liver injury reported | – | – | –
34 | COC(=O)[C@H]1[C@H]2C[C@@H]3c4[nH]c5cc(OC)ccc5c4CCN3C[C@H]2C[C@@H](OC(=O)c2cc(OC)c(OC)c(OC)c2)[C@@H]1OC [RESERPINE] | no drug-induced liver injury reported | drug-induced liver injury reported | no drug-induced liver injury reported | – | – | –
35 | CC1=C(/C=C/C(C)=C/C=C/C(C)=C/CO)C(C)(C)CCC1 [RETINOL] | – | – | – | drug-induced liver injury reported | drug-induced liver injury reported | drug-induced liver injury reported
36 | NC(=O)c1ncn([C@@H]2O[C@H](CO)[C@@H](O)[C@H]2O)n1 [RIBAVIRIN] | drug-induced liver injury reported | drug-induced liver injury reported | no drug-induced liver injury reported | – | – | –
37 | Cc1cc2nc3c(=O)[nH]c(=O)nc-3n(C[C@H](O)[C@H](O)[C@H](O)CO)c2cc1C [RIBOFLAVIN] | drug-induced liver injury reported | no drug-induced liver injury reported | no drug-induced liver injury reported | – | – | –
